For assay [1], the system named is GC1 receptor. In words: calcium influx stimulated by excitatory amino acids in primary cultures of cerebellar granule cells (GC1). It counts as cell-based, rat. The settings on record: for Calcium Influx % of stimulation by 10 μM GLU: 10 μM GLU (Table 2). As for the experimental part:
(§1) Studies described hereinbelow on the usefulness of the compounds were performed on primary cultures of cerebellar granule cells prepared from 8-day old rats according to the procedures as set forth in Wroblewski et al., Neuropharmacology 24(9), 919-921 (1985). These cultures are characterized by the presence of four subtypes of excitatory amino acid receptors, classified on the basis of the coupling of their recognition sites to specific signal transduction systems, as well as according to the pharmacology of their recognition sites. The classification distinguishes between excitatory amino acid recognition sites coupled with PI hydrolysis (Gp) and those coupled with the activation of Ca^2+ (GC). This is disclosed in greater detail in Wroblewski et al. Proc. Natl. Acad. Sci. […], 5068-5072 (1987) GP1 and GC1 receptors are activated by glutamate, aspartate, N-methyl-D-aspartate (NMDA), antagonized by 2-amino-5-phosphonovalerate (APV), and inhibited by Mg^2+ . These two receptor subtypes correspond to the NMDA receptor, however, two distinct receptors must be postulated on the basis of their signal transducing mechanisms. The GP2 receptor is activated by glutamate and quisqualate, and is insensitive to Mg^2 + and APV. The GC2 receptor is activated by kainate and preferentially antagonized by cis-piperidine-2,3-dicarboxylate. The GC2 receptor is also insensitive to Mg^2+ inhibition. These two receptors correspond to the quisqualate and kainate receptors, respectively.
(§2) Cis-azetidine-2,4-dicarboxylic acid and derivatives selectively potentiate signal transduction at the GC1 and GP1 receptors. Referring to Table 1 the influx of calcium stimulated by NMDA, GLU, ASP and […] acting at the GC1 receptor is potentiated by cis-azetidine-2,4-dicarboxylic acid, while the action of KAIN at the GC2 receptor is not affected.

The subject of the next assay is GP1 receptor. In words: PI hydrolysis stimulated by GLU in cerebellar granule cells. The conditions noted are these: 20 μM GLU (Table 2); * = antagonistic activity. It counts as cell-based, rat. As for the experimental part: as §1, §2
Assay [2] deals with NMDA receptor subtype. The settings on record: icv NMDA; cited from earlier work.
In assay [3] the test system is GC1 receptor. The assay can be described thus: inhibition of ASP-stimulated calcium influx by phencyclidine and its prevention. Format: cell-based, rat. The method, then: as §1
(§3) Phencyclidine (PCP), once used as an anaesthetic, produces strong psychotropic effects manifested in humans by a state of sensory isolation, hallucinations and confusional states. It is one of the most widely abused drugs in the United States. One of the possible mechanisms of action of PCP involves the noncompetitive inhibition of the signal transduction at excitatory amino acid receptors, through allosteric interaction at a site distinct from the primary transmitter site (see Proc. Natl. Acad. Sci. USA discussed above).

Another assay relates to binding site for PCP. The assay can be described thus: [^3 H]PCP radioligand binding. The conditions noted are these: radioligand binding studies.
Text: as §3

Assay [4] relates to GC1 receptor. In words: calcium influx stimulated by GLU in the absence and presence of Az5. It counts as cell-based, rat. As for the experimental part: as §1
Azxetidines increase the potency but not the efficacy of GLU action at the GC1 receptor. […] This indicates a 7-fold potentiation of the action of GLU.

In the next assay the test system is GC2 receptor. In words: calcium influx stimulated by kainate at the GC2 receptor in cerebellar granule cells. It counts as cell-based, rat. The method, then:
as §1, with “These two receptors correspond to the quisqualate and kainate receptors, respectively.” left out

The test system of assay [5] is NMDA receptor subtype. In words: cGMP content in the cerebellum after icv injection of NMDA. Format: in vivo, rat. The arrangement: cGMP: unit not given here. As for the experimental part: The action of the NMDA receptor subtype can be estimated in vivo by measuring the changes in the content of cyclic GMP (cGMP) in the rat cerebellum after intracerebroventricular injections of NMDA. […] In terms of its pharmacology and of its mechanism of signal transduction the active receptor in the above conditions can be compared to the CC1 reporter measured in cultures of cerebellar granule cells.
In two series of experiments rats were injected icv with NMDA together with or without cis-azetidine-2,4-dicarboxylic acid.

Molecules are shown by their SMILES. pEC50: −log10 of the molar value.

In general, pEC50 refers to the negative decadic logarithm of the EC50, by convention in mol/L.

As to `COC(=O)[C@@H]1C[C@H](C(=O)OC(C)(C)C)N1` (relative stereo) [Az1, cis-azetidine-2,4-dicarboxylic acid t-butyl methyl ester], the “Calcium Influx % of stimulation by 10 μM GLU” value (“Calcium Influx %” for short) in the assay with GC1 receptor [1] is reported as 107%. For the same molecule, the “% activity (potentiation of calcium influx)” value with GC1 receptor [1] (agonist Glu 10 μM (Table 3)) amounted to 107%. Moreover, the “PI hydrolysis % of stimulation by 20 μM GLU” value (from here on “PI hydrolysis % of stimulation”) with GP1 receptor is reported as 117%.
As for `COC(=O)[C@H]1C[C@H](C(=O)OC(C)(C)C)N1` (relative stereo) [Az2, trans-azetidine-2,4-dicarboxylic acid-t-butyl methyl ester], in the assay with GC1 receptor [1], the “Calcium Influx %” value stood at 104%.
Consider `CC(C)(C)OC(=O)[C@H]1C[C@@H](C(=O)O)N1` (relative stereo) [Az3, cis-azetidine-2,4-dicarboxylic acid mono-t-butyl ester], for which the “Calcium Influx %” value with GC1 receptor [1] amounted to 141%. The “% activity (potentiation of calcium influx)” value with GC1 receptor [1] (agonist Glu 10 μM (Table 3)) was 141%; with GC1 receptor [1] (agonist Glu 20 μM (Table 3)) it was 136%. Further, the “PI hydrolysis % of stimulation” value with GP1 receptor turned out to be 125%.
For the molecule `CC(C)(C)OC(=O)[C@H]1C[C@H](C(=O)O)N1` (relative stereo) [Az4, trans-azetidine-2,4-dicarboxylic acid mono-t-butyl ester], the “Calcium Influx %” value with GC1 receptor [1] was 100%. The “PI hydrolysis % of stimulation” value in the assay with GP1 receptor is listed as 109%.
Consider `O=C(O)[C@H]1C[C@H](C(=O)O)N1` (relative stereo) [Az6, trans-azetidine-2,4-dicarboxylic acid], for which the “Calcium Influx %” value in the assay with GC1 receptor [1] was 103%. Moreover, the “PI hydrolysis % of stimulation” value in the assay on GP1 receptor amounted to 83%.
On to `NC(=O)[C@@H]1C[C@H](C(=O)O)N1` (relative stereo) [Az8, cis-4-carbamoylazetidine-2-carboxylic acid], for which, in the assay on GC1 receptor [1] (agonist Asp 20 μM (Table 3)), the “% activity (potentiation of calcium influx)” value was found to be 150%.
With `COC(=O)[C@H]1C[C@@H](C(=O)O)N1` (relative stereo) [Az11, cis-azetidine-2,4-dicarboxylic acid methyl ester], in the assay with GC1 receptor [1] (agonist Glu 10 μM (Table 3)), the “% activity (potentiation of calcium influx)” value is reported as 122%.
Turning to `O=C(O)[C@H]1C[C@@H](CO)N1` (relative stereo) [Az13, cis-4-(hydroxymethyl)azetidine-2-carboxylic acid], in the assay on GC1 receptor [1] (agonist Asp 10 μM (Table 3)), the “% activity (potentiation of calcium influx)” value is 159%.
For `NC(CCCP(=O)(O)O)C(=O)O` (centres unmarked) [APV, 2-amino-5-phosphonovaleric acid], in the assay on NMDA receptor subtype [2], the “effect on increases in cGMP content induced by NMDA” value is recorded as “antagonized”.
For the molecule `N[C@@H](CC(=O)O)C(=O)O` [ASP, Aspartate, reference compound], the ASP-stimulated calcium influx with GC1 receptor [3] (ASP 50 μM, no PCP) is recorded as 31.3 ± 3.4 nmol ^45 Ca^2+ /mg protein.
Turning to `O=C(O)[C@@H]1C[C@H](C(=O)O)N1` [Az5, cis-azetidine-2,4-dicarboxylic acid], the “Calcium Influx %” value in the assay with GC1 receptor [1] came to 207%. Also, in the assay on GC1 receptor [1] (GC1 receptor), the “effect on calcium influx stimulated by NMDA, GLU, ASP and QUIS” value is on record as “potentiated”. For the same molecule, the “% activity (potentiation of calcium influx)” value is 196% in the assay on GC1 receptor [1] (agonist Asp 10 μM (Table 3)), 141% in the assay with GC1 receptor [1] (agonist Asp 20 μM (Table 3)), 207% with GC1 receptor [1] (agonist Glu 10 μM (Table 3)) and 157% in the assay with GC1 receptor [1] (agonist Glu 20 μM (Table 3)). Moreover, the “Percent Activity (potentiation of calcium influx)” value in the assay with GC1 receptor [1] (agonist Aspartate (ASP) 20 μM) was determined as 144%; in the assay with GC1 receptor [1] (agonist Glutamate (GLU) 20 μM), 169%; in the assay with GC1 receptor [1] (agonist NMDA 20 μM) it was 188%; in the assay on GC1 receptor [1] (agonist Quisqualate (QUIS) 20 μM), 124%; in the assay on GC2 receptor (agonist Kainate 20 μM), 104%. Further, the “displacement of specific [^3 H]PCP binding” value in the assay with binding site for PCP was “failed to displace the specific binding of [^3 H]PCP”. Besides, the “potentiation of the action of GLU” value in the assay with GC1 receptor [4] (50 μM Az5, from EC50 of GLU) turned out to be 7 fold. Besides, in the assay with GP1 receptor, the “PI hydrolysis % of stimulation” value came out at 124%. Moreover, the “effect on the action of KAIN” value in the assay with GC2 receptor (GC2 receptor) is “not affected”. Moreover, the cGMP is reported as 6.8 ± 0.8 with NMDA receptor subtype [5] (5 min, Az5 2 μg); 16.1 + 2.9 in the assay with NMDA receptor subtype [5] (5 min, NMDA + Az5 together); 14.9 ± 1.3 in the assay with NMDA receptor subtype [5] (10 min, Az5 10 μg); 16.5 + 2.8 in the assay on NMDA receptor subtype [5] (10 min, NMDA + Az5 together). For the same molecule, the “cGMP % Control” value with NMDA receptor subtype [5] (5 min, Az5 2 μg) came out at 142 % Control; in the assay with NMDA receptor subtype [5] (5 min, NMDA + Az5 together), 334 % Control; in the assay with NMDA receptor subtype [5] (10 min, Az5 10 μg) it was 192 % Control; with NMDA receptor subtype [5] (10 min, NMDA + Az5 together) it was 211 % Control. The “effect on action of endogenous receptor agonist and injected NMDA” value with NMDA receptor subtype [5] (both series) is on record as “potentiated the action of the endogenous receptor agonist as well as the action of injected NMDA”. Besides, the ASP-stimulated calcium influx in the assay on GC1 receptor [3] (ASP 50 μM + Az5 50 μM, PCP 20 nM) is recorded as 57.2 ± 3.2 nmol ^45 Ca^2+ /mg protein; with GC1 receptor [3] (ASP 50 μM + Az5 50 μM, PCP 50 nM), 32.2 ± 1.3 nmol ^45 Ca^2+ /mg protein; with GC1 receptor [3] (ASP 50 μM + Az5 50 μM, PCP 100 nM), 13.3 ± 0.3 nmol ^45 Ca^2+ /mg protein; in the assay on GC1 receptor [3] (ASP 50 μM + Az5 50 μM, no PCP), 64.5 ± 2.6 nmol ^45 Ca^2+ /mg protein. In addition, the “action of PCP on ASP-stimulated signal transduction” value in the assay on GC1 receptor [3] (with PCP) is recorded as “exhibits the ability to decrease the action of PCP on ASP-stimulated signal transduction”.
With `COC(=O)[C@@H]1C[C@H](C(=O)OC)N1` [Az7, cis-azetidine-2,4-dicarboxylic acid dimethyl ester], the “% activity (potentiation of calcium influx)” value in the assay on GC1 receptor [1] (agonist Glu 50 μM (Table 3)) worked out at 68%.
As for `NC(=O)[C@@H]1C[C@H](C(N)=O)N1` [Az9, cis-azetidine-2,4-dicarboxamide], the “% activity (potentiation of calcium influx)” value in the assay on GC1 receptor [1] (agonist Asp 20 μM (Table 3)) was found to be 106%.
As for `O=C(O)[C@H]1C[C@@H](C(=O)O)N1Cc1ccccc1` [Az10, cis-N-benzylazetidine-2,4-dicarboxylic acid], in the assay with GC1 receptor [1] (agonist Asp 10 μM (Table 3)), the “% activity (potentiation of calcium influx)” value is 121%.
`O=C(O)[C@@H]1CCN1` [Az12, L-2-azetidinecarboxylic acid, reference compound]: in the assay on GC1 receptor [1] (agonist Glu 20 μM (Table 3)), the “% activity (potentiation of calcium influx)” value came to 110%.
On to `N[C@@H](CCC(=O)O)C(=O)O` [GLU, Glutamate], for which the results for the pEC50 in the assay with GC1 receptor [4] (in the absence of Az5) and in the assay with GC1 receptor [4] (in the presence of 50 μM Az5) were 4.29 and 5.15, respectively.
Regarding `CN[C@H](CC(=O)O)C(=O)O` [NMDA, N-methyl-D-aspartate, reference compound], the cGMP with NMDA receptor subtype [5] (5 min, NMDA 2 μg) worked out at 5.6 ± 0.8; in the assay with NMDA receptor subtype [5] (10 min, NMDA 1 μg), 10.5 ± 2.3. Also, the “cGMP % Control” value was found to be 136 % Control in the assay with NMDA receptor subtype [5] (5 min, NMDA 2 μg) and 135 % Control with NMDA receptor subtype [5] (10 min, NMDA 1 μg).
Turning to `c1ccc(C2(N3CCCCC3)CCCCC2)cc1` [PCP, phencyclidine, reference compound], the ASP-stimulated calcium influx in the assay on GC1 receptor [3] (ASP 50 μM, PCP 20 nM) was 23.0 ± 1.7 nmol ^45 Ca^2+ /mg protein; in the assay with GC1 receptor [3] (ASP 50 μM, PCP 50 nM), 9.2 ± 0.5 nmol ^45 Ca^2+ /mg protein; in the assay with GC1 receptor [3] (ASP 50 μM, PCP 100 nM) it was 0.7 ± 0.1 nmol ^45 Ca^2+ /mg protein.
